According to patent US8278345B2, “Inhibitors of glutaminyl cyclase” (Probiodrug AG, priority 2006, dated 2012):

target: hQC (Homo sapiens, UniProt Q16769); test: Inhibitor assay for glutaminyl cyclase activity (fluorometric, H-Gln-βNA / H-Gln-AMC); format: biochemical; conditions: compound from preparative synthesis, purified; read-out: IC50 hQC
How it was run: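 Coupled fluorometric assay at 30 °C with pyroglutamyl aminopeptidase, in Tris/HCl pH 8.0 with EDTA, substrate H-Gln-βNA (0.2 mM; ex/em 320/410 nm) or H-Gln-AMC (ex/em 380/460 nm), initiated by QC. Screening: 4 mM inhibitor, substrate at 1 KM; Ki from progress curves fitted to competitive inhibition.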

hQC, sequence (Q16769 29-361): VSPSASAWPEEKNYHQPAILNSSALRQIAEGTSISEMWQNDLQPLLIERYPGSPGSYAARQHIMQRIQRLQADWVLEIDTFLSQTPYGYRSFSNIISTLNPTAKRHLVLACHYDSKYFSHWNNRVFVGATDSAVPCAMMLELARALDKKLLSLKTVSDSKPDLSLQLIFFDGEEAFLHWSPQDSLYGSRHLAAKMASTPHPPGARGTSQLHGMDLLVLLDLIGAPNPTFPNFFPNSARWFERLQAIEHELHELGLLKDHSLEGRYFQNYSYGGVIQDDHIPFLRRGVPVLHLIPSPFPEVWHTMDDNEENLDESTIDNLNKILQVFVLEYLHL

| IC50 | Compound |
| --- | --- |
| 88 nM | COc1ccc(C2C(c3ccc(O)cc3)=C(O)C(=O)N2CCCn2ccnc2)cc1 (stereo not shown) [Compound 156, 3-Hydroxy-4-(4-hydroxy-phenyl)-1-(3-imidazol-1-yl-propyl)-5-(4-methoxy-phenyl)-1,5-dihydro-pyrrol-2-one] |
| 1230 nM | COc1ccc(C2C(c3ccccc3)=C(O)C(=O)N2CCCn2ccnc2)cc1 (stereo not shown) [Compound 86, 3-Hydroxy-1-(3-imidazol-1-yl-propyl)-5-(4-methoxy-phenyl)-4-phenyl-1,5-dihydro-pyrrol-2-one] |
| 22.5 nM | O=C1C(O)=C(c2cccc(O)c2)C(c2ccc3nsnc3c2)N1c1ccc2[nH]cnc2c1 (stereo not shown) [Compound 269, 1-(1H-Benzoimidazol-5-yl)-5-benzo[c][1,2,5]thiadiazol-5-yl-3-hydroxy-4-(3-hydroxy-phenyl)-1,5-dihydro-pyrrol-2-one] |

same assay, conditions: read-out: IC50

| IC50 | Compound |
| --- | --- |
| 5710 nM | Cc1[nH]c2ccccc2c1C1C(c2c[nH]c3ccccc23)=C(O)C(=O)N1c1ccc2[nH]cnc2c1 (stereo not shown) [Compound 285, 1-(1H-Benzoimidazol-5-yl)-3-hydroxy-4-(1H-indol-3-yl)-5-(2-methyl-1H-indol-3-yl)-1,5-dihydro-pyrrol-2-one] |
| 40 nM | COc1ccc(C2C(c3ccc(O)cc3)=C(O)C(=O)N2CCCn2ccnc2)cc1 (stereo not shown) [Compound 156, 3-Hydroxy-4-(4-hydroxy-phenyl)-1-(3-imidazol-1-yl-propyl)-5-(4-methoxy-phenyl)-1,5-dihydro-pyrrol-2-one] |
| 40 nM | O=C1C(O)=C(c2ccccc2)C(c2ccco2)N1CCCn1ccnc1 (stereo not shown) [Compound 106, 5-Furan-2-yl-3-hydroxy-1-(3-imidazol-1-yl-propyl)-4-phenyl-1,5-dihydro-pyrrol-2-one] |
| 4900 nM | CC1=C(O)C(=O)N(CCCn2ccnc2)C1c1ccc(C)o1 (stereo not shown) [Compound 25, 3-Hydroxy-1-(3-imidazol-1-yl-propyl)-4-methyl-5-(5-methyl-furan-2-yl)-1,5-dihydro-pyrrol-2-one] |
| 1300 nM | CCC/C=C/C1C(CCCCC)=C(O)C(=O)N1CCCn1ccnc1 (stereo not shown) [Compound 185, 3-Hydroxy-1-(3-imidazol-1-yl-propyl)-5-(pent-1-enyl)-4-pentyl-1,5-dihydro-pyrrol-2-one] |
| 3100 nM | CC(C)C1=C(O)C(=O)N(CCCn2ccnc2)C1c1cccc(Cl)c1 (stereo not shown) [Compound 73, 5-(3-Chloro-phenyl)-3-hydroxy-1-(3-imidazol-1-yl-propyl)-4-isopropyl-1,5-dihydro-pyrrol-2-one] |
| 40 nM | O=C1C(O)=C(c2ccccc2)C(c2c[nH]c3ccccc23)N1CCCn1ccnc1 (stereo not shown) [Compound 97, 3-Hydroxy-1-(3-imidazol-1-yl-propyl)-5-(1H-indol-3-yl)-4-phenyl-1,5-dihydro-pyrrol-2-one] |
| 40 nM | COc1ccc(C2C(c3ccccc3)=C(O)C(=O)N2CCCn2ccnc2)cc1 (stereo not shown) [Compound 86, 3-Hydroxy-1-(3-imidazol-1-yl-propyl)-5-(4-methoxy-phenyl)-4-phenyl-1,5-dihydro-pyrrol-2-one] |
| 8770 nM | O=C(O)CC1=C(O)C(=O)N(c2ccc3[nH]cnc3c2)C1c1cccc2cccnc12 (stereo not shown) [Compound 354, [1-(1H-Benzoimidazol-5-yl)-4-hydroxy-5-oxo-2-quinolin-8-yl-2,5-dihydro-1H-pyrrol-3-yl]-acetic acid] |
| 2200 nM | CC1=C(O)C(=O)N(CCCn2ccnc2)C1c1ccccn1 (stereo not shown) [Compound 43, 3-Hydroxy-1-(3-imidazol-1-yl-propyl)-4-methyl-5-pyridin-2-yl-1,5-dihydro-pyrrol-2-one] |
| 40 nM | O=C1C(O)=C(c2ccc(O)cc2)C(c2ccccc2O)N1CCCn1ccnc1 (stereo not shown) [Compound 157, 3-Hydroxy-5-(2-hydroxy-phenyl)-4-(4-hydroxy-phenyl)-1-(3-imidazol-1-yl-propyl)-1,5-dihydro-pyrrol-2-one] |
| 2650 nM | CCCC(=O)C1=C(O)C(=O)N(c2ccc3[nH]cnc3c2)C1c1cccc(C)n1 (stereo not shown) [Compound 334, 1-(1H-Benzoimidazol-5-yl)-4-butyryl-3-hydroxy-5-(6-methyl-pyridin-2-yl)-1,5-dihydro-pyrrol-2-one] |
| 40 nM | O=C1C(O)=C(c2ccc(O)cc2)C(c2cccs2)N1CCCn1ccnc1 (stereo not shown) [Compound 173, 3-Hydroxy-4-(4-hydroxy-phenyl)-1-(3-imidazol-1-yl-propyl)-5-thiophen-2-yl-1,5-dihydro-pyrrol-2-one] |
| 9850 nM | O=C1C(O)=C(c2cccc(O)c2)C(c2cc[nH]n2)N1c1ccc2[nH]cnc2c1 (stereo not shown) [Compound 464, 1-(1H-Benzoimidazol-5-yl)-3-hydroxy-4-(3-hydroxy-phenyl)-5-(1H-pyrazol-3-yl)-1,5-dihydro-pyrrol-2-one] |
| 4 nM | O=C1C(O)=C(c2cccc(O)c2)C(c2ccc3nsnc3c2)N1c1ccc2[nH]cnc2c1 (stereo not shown) [Compound 269, 1-(1H-Benzoimidazol-5-yl)-5-benzo[c][1,2,5]thiadiazol-5-yl-3-hydroxy-4-(3-hydroxy-phenyl)-1,5-dihydro-pyrrol-2-one] |
| 400 nM | CCCC1C(c2ccccc2)=C(O)C(=O)N1CCCn1ccnc1 (stereo not shown) [Compound 80, 3-Hydroxy-1-(3-imidazol-1-yl-propyl)-4-phenyl-5-propyl-1,5-dihydro-pyrrol-2-one] |
| 1390 nM | CCCCCC(=O)C1=C(O)C(=O)N(c2ccc3[nH]cnc3c2)C1c1cccc(C)c1 (stereo not shown) [Compound 411, 1-(1H-Benzoimidazol-5-yl)-4-hexanoyl-3-hydroxy-5-m-tolyl-1,5-dihydro-pyrrol-2-one] |
| 2200 nM | CC(C)C1=C(O)C(=O)N(CCCn2ccnc2)C1c1ccccc1F (stereo not shown) [Compound 74, 5-(2-Fluoro-phenyl)-3-hydroxy-1-(3-imidazol-1-yl-propyl)-4-isopropyl-1,5-dihydro-pyrrol-2-one] |
| 8500 nM | CC1C(F)=C(O)C(=O)N1CCCn1ccnc1 (stereo not shown) [Compound 3, 4-Fluoro-3-hydroxy-1-(3-imidazol-1-yl-propyl)-5-methyl-1,5-dihydro-pyrrol-2-one] |

| IC50 | Compound |
| --- | --- |
| 220 nM | CC1=C(O)C(=O)N(c2ccc3[nH]cnc3c2)C1c1cc(F)cc(F)c1F (stereo not shown) [Compound 407, 1-(1H-Benzoimidazol-5-yl)-3-hydroxy-4-methyl-5-(2,3,5-trifluoro-phenyl)-1,5-dihydro-pyrrol-2-one] |
| 2200 nM | CC1=C(O)C(=O)N(CCCn2ccnc2)C1c1ccc(C)cc1 (stereo not shown) [Compound 21, 3-Hydroxy-1-(3-imidazol-1-yl-propyl)-4-methyl-5-p-tolyl-1,5-dihydro-pyrrol-2-one] |
| 8590 nM | CC(C)(C)C(=O)C1=C(O)C(=O)N(c2ccc3[nH]cnc3c2)C1c1c(F)c(F)cc(F)c1F (stereo not shown) [Compound 442, 1-(1H-Benzoimidazol-5-yl)-4-(2,2-dimethyl-propionyl)-3-hydroxy-5-(2,3,5,6-tetrafluoro-phenyl)-1,5-dihydro-pyrrol-2-one] |
| 2110 nM | CCC1=C(O)C(=O)N(c2ccc3[nH]cnc3c2)C1c1ccc2nonc2c1 (stereo not shown) [Compound 431, 1-(1H-Benzoimidazol-5-yl)-5-(benzo[c][1,2,5]oxadiazol-5-yl)-4-ethyl-3-hydroxy-1,5-dihydro-pyrrol-2-one] |
| 400 nM | CCC1C(c2c[nH]c3ccccc23)=C(O)C(=O)N1CCCn1ccnc1 (stereo not shown) [Compound 142, 5-Ethyl-3-hydroxy-1-(3-imidazol-1-yl-propyl)-4-(1H-indol-3-yl)-1,5-dihydro-pyrrol-2-one] |
| 40 nM | CCCCCC1=C(O)C(=O)N(CCCn2ccnc2)C1c1c[nH]c2cc(C)ccc12 (stereo not shown) [Compound 202, 3-Hydroxy-1-(3-imidazol-1-yl-propyl)-5-(6-methyl-1H-indol-3-yl)-4-pentyl-1,5-dihydro-pyrrol-2-one] |
| 400 nM | O=C1C(O)=C(c2ccccc2)C(c2ccccn2)N1CCCn1ccnc1 (stereo not shown) [Compound 101, 3-Hydroxy-1-(3-imidazol-1-yl-propyl)-4-phenyl-5-pyridin-2-yl-1,5-dihydro-pyrrol-2-one] |
| 400 nM | O=C1C(O)=C(c2c[nH]c3ccccc23)C(Cc2ccccc2)N1CCCn1ccnc1 (stereo not shown) [Compound 134, 5-Benzyl-3-hydroxy-1-(3-imidazol-1-yl-propyl)-4-(1H-indol-3-yl)-l 5-dihydro-pyrrol-2-one] |
| 760 nM | CC(=O)C1=C(O)C(=O)N(c2ccc3[nH]cnc3c2)C1c1ccc(O)c(Br)c1 (stereo not shown) [Compound 333, 4-Acetyl-1-(1H-benzoimidazol-5-yl)-5-(3-bromo-4-hydroxy-phenyl)-3-hydroxy-1,5-dihydro-pyrrol-2-one] |
| 400 nM | O=C(O)c1ccc(C2C(C(=O)C3CC3)=C(O)C(=O)N2c2ccc3[nH]cnc3c2)o1 (stereo not shown) [Compound 308, 5-[1-(1H-Benzoimidazol-5-yl)-3-cyclopropanecarbonyl-4-hydroxy-5-oxo-2,5-dihydro-1H-pyrrol-2-yl]-furan-2-carboxylic acid] |
| 40 nM | CCCCCC1=C(O)C(=O)N(CCCn2ccnc2)C1c1ccc(C)cc1 (stereo not shown) [Compound 184, 3-Hydroxy-1-(3-imidazol-1-yl-propyl)-4-pentyl-5-p-tolyl-1,5-dihydro-pyrrol-2-one] |
| 400 nM | O=C1C(O)=C(c2c[nH]c3ccccc23)C(C2=CCCCC2)N1CCCn1ccnc1 (stereo not shown) [Compound 129, 5-Cyclohex-1-enyl-3-hydroxy-1-(3-imidazol-1-yl-propyl)-4-(1H-indol-3-yl)-1,5-dihydro-pyrrol-2-one] |
| 2380 nM | O=C(O)CC1=C(O)C(=O)N(c2ccc3[nH]cnc3c2)C1c1ccnc2ccccc12 (stereo not shown) [Compound 297, [1-(1H-Benzoimidazol-5-yl)-4-hydroxy-5-oxo-2-quinolin-4-yl-2,5-dihydro-1H-pyrrol-3-yl]-acetic acid] |
| 40 nM | O=C1C(O)=C(c2ccc(O)cc2)C(c2cccc(O)c2)N1CCCn1ccnc1 (stereo not shown) [Compound 182, 3-Hydroxy-5-(3-hydroxy-phenyl)-4-(4-hydroxy-phenyl)-1-(3-imidazol-1-yl-propyl)-1,5-dihydro-pyrrol-2-one] |
| 6880 nM | CC(=O)C1=C(O)C(=O)N(c2ccc3[nH]cnc3c2)C1c1cc[nH]n1 (stereo not shown) [Compound 444, 4-Acetyl-1-(1H-benzoimidazol-5-yl)-3-hydroxy-5-(1H-pyrazol-3-yl)-1,5-dihydro-pyrrol-2-one] |
| 850 nM | O=C(C1=C(O)C(=O)N(c2ccc3[nH]cnc3c2)C1)C1CCCCC1 [Compound 441, 1-(1H-Benzoimidazol-5-yl)-4-cyclohexanecarbonyl-3-hydroxy-1,5-dihydro-pyrrol-2-one] |
| 1300 nM | CC(C)C1=C(O)C(=O)N(c2ccc3[nH]cnc3c2)C1c1cc(F)cc(F)c1F (stereo not shown) [Compound 253, 1-(1H-Benzoimidazol-5-yl)-3-hydroxy-4-isopropyl-5-(2,3,5-trifluoro-phenyl)-1,5-dihydro-pyrrol-2-one] |
| 4900 nM | O=C1C(O)=C(c2ccccc2)C(C2=CCCCC2)N1CCCn1ccnc1 (stereo not shown) [Compound 94, 5-Cyclohex-1-enyl-3-hydroxy-1-(3-imidazol-1-yl-propyl)-4-phenyl-1,5-dihydro-pyrrol-2-one] |
